These results are taken from patent US10351589B2, “3α-ethynyl, 3β-hydroxy-5α-pregnan-20-oxime for use in the treatment of CNS disorders” (Umecrine Cognition AB, priority 2015, dated 2019).

Common to all, as to format: cell-based
Assay [1] has as its target T1, α5β3γ2L GABAA receptor (Homo sapiens, UniProt P18507+P28472+P31644).
T1 construct: expressed in transfected cells; host or cells: HEK-293 (permanently transfected)
The experiment in a line: Example 3: comparative patch clamp test of compound and epimer, change in chloride flow through α5β3γ2L GABAA receptor. Particulars: for action on the GABA receptor subunit alpha 5: summary of Table 4. The text has this:
(§1) HEK-293 cells, permanently transfected with the human α1β2γ2 GABAA and α5β3γ2 GABAA receptor expressing functional α1β2γ2L and α5β3γ2L GABAA receptors were used. The cell lines permanently expressing a functional human GABAA receptor was made in following steps. The GABAA receptor subunits α1(308-1727 NM_000806), β2 (214-1679 NM_000813), and γ2L (290-1785 NM_198904) including introduced Kozac sequences just before the start codons were subcloned into mammalian expression vectors containing Geneticin, Hygromycin B, and Zeocin resistance, respectively. A HEK-293 cell line stably expressing the three GABAA receptor subunits was produced by transfection of the subunits one at a time. The transfection was followed by selection with the appropriate antibiotics, cell separation with the use of subunit specific antibodies (β2 and γ2), and production of single cell colonies. Produced cell lines were analysed with immunocytochemistry for the three GABAA receptor subunits, followed by selection of a suitable cell line showing for the GABAA receptor normal and good reactivity in a patch-clamp analysis (see below) towards GABA and the GAMS tetrahydrodeoxycorticosterone (THDOC).
(§2) Experiments were carried out to investigate the effect of 3α-ethynyl, 3β-hydroxy, 5α-pregnan-20-oxime on the GABAA receptor function in absence and in presence of the GAMS Tetrahydrodeoxycorticosterone (THDOC) by the Dynaflow™ system on HEK-293 cells. In these tests the protocol was optimized to be similar to the physiological conditions in the synaptic cleft.
(§3) Cell culture: HEK-293 cells, permanently transfected with human α1β2γ2 GABAA and α5β3γ2 GABAA receptor subtypes, were seeded at a density of 3×10^4/25 cm^2 in cellbind culture flask. The transfected cells were used for patch-clamp experiments 3 days after seeding. When using the cells for patch-clamp experiments the cells were washed twice with O2 bubbled EC-solution (see below). About 5 mL EC was then added and the cells were kept in the incubator for about 15 minutes. After 15 minutes the cells come loose from the bottom of the flask and were separated by carefully sucking couple of times with a Pasteur pipette.
(§4) Dynaflow™ system: Dynaflow™ system with resolve chips was used for all patch-clamp experiments. The resolve chips is made of non-sticky materials. The channel width is 150 μm and the height 50 μm. The well volume is 280 μL. Run time at the flow rate of […]. is […]. The pump settings were as follow: Omnifix 2 mL syringe with inner diameter of 9.65 mm was used. The syringe pump flow rate of chip was 26 μL/min.
Electrophysiology: Patch electrodes were pulled from 1.5 mm O.D., 0.86 mm I.D. borosilicate capillary glass without filament. […] The intracellular solution consisted of (in mM): 140 Cs-gluconate, 3.0 NaCl, 1.2 MgCl2, 1.0 EGTA, 10 HEPES. pH was adjusted to 7.2 with CsOH. The extracellular (EC) solution used during recordings contained (in mM): 137 NaCl, 5.0 KCl, 1.0 CaCl2, 1.2 MgCl2, 10 HEPES, 10 glucose. pH was adjusted with NaOH to 7.4. After compensating for the liquid junction potential a steady holding potential of −17 mV was used in all experiments. In physiological conditions the HEK-293 has a resting potential at −40 mV and a low concentration of chloride ions inside the cell. By using the holding potential of −17 mV and the intracellular solution with low chloride ion concentration the chloride ions flux into the cell when the receptors are activated. All experiments were performed at room temperature (21 to 23° C.). A standard protocol was used for all experiments.
GABA applications: By using the Dynaflow equipment it is possible to study transfected HEK-293 during almost physiological conditions. The Dynaflow system allows application of solutions for as short as 40 ms up to minutes in time. Physiologically, in the synaptic cleft, GABA is released in mM range for about 2 ms this is valid for alpha1 receptors. […]
In general terms: In patch-clamp work, channel activity is measured electrically.

The target in assay [2] is T2, human α1β2γ2L GABAA receptor (Homo sapiens, UniProt P14867+P18507+P47870).
T2 construct: expressed in transfected cells
The experiment in a line: Patch clamp (Dynaflow) current response mediated by chloride ion flux, α1β2γ2L GABAA receptor in HEK-293 cells.
From the text: as §1, §2, §3, §4
(§5) Steroids and GABA: GABA was dissolved in EC-solution by ultrasound for about 40 minutes to the concentration of 10 mM in room temperature. All steroids were dissolved to the concentration of 6 mM in ethanol. The ethanol concentration was 0.1% in all end-solutions, including the wash solution (EC) and the solution with GABA alone. End-solutions are the solutions added into the wells of the chip.
(§6) Electrophysiology: Patch electrodes were pulled from 1.5 mm O.D., 0.86 mm I.D. borosilicate capillary glass without filament. […] The intracellular solution consisted of (in mM): 140 Cs-gluconate, 3.0 NaCl, 1.2 MgCl2, 1.0 EGTA, 10 HEPES. pH was adjusted to 7.2 with CsOH. The extracellular (EC) solution used during recordings contained (in mM): 137 NaCl, 5.0 KCl, 1.0 CaCl2, 1.2 MgCl2, 10 HEPES, 10 glucose. pH was adjusted with NaOH to 7.4. After compensating for the liquid junction potential a steady holding potential of −17 mV was used in all experiments. In physiological conditions the HEK-293 has a resting potential at −40 mV and a low concentration of chloride ions inside the cell. By using the holding potential of −17 mV and the intracellular solution with low chloride ion concentration the chloride ions flux into the cell when the receptors are activated. All experiments were performed at room temperature (21 to 23° C.). A standard protocol was used for all experiments. […]

For assay [3], the target named is T1, α5β3γ2L GABAA receptor. In words: Patch clamp (Dynaflow) current response mediated by chloride ion flux, α5β3γ2L GABAA receptor in HEK-293 cells. Particulars: for Relative effect Mean (%) / Relative effect Median: 200 nM THDOC + 0.3 μM GABA, control set to 0.
From the text: as §1, §2, §3, §4, §5, §6

T2 sequence (P14867 28-456): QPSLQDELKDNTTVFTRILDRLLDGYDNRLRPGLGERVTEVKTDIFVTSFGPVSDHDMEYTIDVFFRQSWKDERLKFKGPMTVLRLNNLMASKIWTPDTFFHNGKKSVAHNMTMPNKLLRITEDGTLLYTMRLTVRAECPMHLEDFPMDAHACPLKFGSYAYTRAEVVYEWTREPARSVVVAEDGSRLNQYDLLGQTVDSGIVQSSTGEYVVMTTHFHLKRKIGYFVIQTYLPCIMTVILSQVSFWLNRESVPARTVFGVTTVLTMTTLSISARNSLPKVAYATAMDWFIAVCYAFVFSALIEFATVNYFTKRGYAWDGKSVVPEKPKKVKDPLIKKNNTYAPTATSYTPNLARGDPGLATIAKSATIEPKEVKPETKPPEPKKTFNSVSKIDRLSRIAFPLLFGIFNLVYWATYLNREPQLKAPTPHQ
T2 sequence (P47870 26-474 isoform P47870-1 limits assumed): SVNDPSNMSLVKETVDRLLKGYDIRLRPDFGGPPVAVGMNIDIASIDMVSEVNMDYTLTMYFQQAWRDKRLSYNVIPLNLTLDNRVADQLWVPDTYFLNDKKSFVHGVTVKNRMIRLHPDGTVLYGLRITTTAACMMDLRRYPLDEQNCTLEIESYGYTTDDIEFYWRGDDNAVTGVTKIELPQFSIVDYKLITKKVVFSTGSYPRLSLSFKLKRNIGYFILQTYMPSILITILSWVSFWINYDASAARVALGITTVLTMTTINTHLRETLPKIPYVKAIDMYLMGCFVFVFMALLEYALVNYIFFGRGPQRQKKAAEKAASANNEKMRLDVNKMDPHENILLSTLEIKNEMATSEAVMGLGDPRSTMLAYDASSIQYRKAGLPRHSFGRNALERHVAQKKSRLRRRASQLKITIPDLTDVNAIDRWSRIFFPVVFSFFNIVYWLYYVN
T2 sequence (P18507 40-475): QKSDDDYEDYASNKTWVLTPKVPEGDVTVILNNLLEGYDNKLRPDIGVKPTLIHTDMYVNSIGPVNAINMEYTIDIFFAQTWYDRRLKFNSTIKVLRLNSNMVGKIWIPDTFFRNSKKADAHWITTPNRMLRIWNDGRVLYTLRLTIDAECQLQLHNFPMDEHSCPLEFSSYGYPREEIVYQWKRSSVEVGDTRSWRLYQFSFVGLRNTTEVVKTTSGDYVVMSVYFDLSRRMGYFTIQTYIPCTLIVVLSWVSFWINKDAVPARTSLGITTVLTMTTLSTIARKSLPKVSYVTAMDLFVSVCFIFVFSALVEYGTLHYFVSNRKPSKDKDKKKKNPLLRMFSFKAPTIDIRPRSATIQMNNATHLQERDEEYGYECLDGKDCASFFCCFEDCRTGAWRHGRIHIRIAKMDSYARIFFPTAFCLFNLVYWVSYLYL
T1 sequence (P31644 32-462): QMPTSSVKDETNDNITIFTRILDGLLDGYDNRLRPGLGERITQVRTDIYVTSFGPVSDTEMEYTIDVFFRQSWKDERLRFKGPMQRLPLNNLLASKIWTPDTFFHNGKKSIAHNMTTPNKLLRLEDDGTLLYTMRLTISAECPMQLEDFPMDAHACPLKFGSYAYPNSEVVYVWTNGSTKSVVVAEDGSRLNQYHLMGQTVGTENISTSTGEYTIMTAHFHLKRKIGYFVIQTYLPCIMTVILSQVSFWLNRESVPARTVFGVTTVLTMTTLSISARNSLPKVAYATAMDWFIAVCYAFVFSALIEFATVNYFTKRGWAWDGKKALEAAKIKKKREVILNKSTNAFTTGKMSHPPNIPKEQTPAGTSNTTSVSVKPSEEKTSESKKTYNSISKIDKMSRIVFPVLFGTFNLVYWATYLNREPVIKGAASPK
T1 sequence (P28472 26-473): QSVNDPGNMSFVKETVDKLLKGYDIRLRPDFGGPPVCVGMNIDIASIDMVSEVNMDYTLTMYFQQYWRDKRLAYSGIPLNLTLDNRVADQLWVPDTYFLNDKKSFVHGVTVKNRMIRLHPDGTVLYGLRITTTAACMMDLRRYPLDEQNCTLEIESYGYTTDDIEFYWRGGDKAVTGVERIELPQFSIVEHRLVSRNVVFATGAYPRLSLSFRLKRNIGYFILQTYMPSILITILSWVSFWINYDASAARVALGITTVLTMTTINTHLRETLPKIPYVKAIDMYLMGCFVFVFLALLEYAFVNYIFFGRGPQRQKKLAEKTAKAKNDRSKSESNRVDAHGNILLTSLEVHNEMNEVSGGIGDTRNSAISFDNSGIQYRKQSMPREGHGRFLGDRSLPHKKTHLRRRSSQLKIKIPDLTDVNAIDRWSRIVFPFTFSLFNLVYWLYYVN
T1 sequence (P18507 40-475): as the sequence (P18507 40-475) above

For `C#C[C@@]1(O)CC[C@@]2(C)[C@@H](CC[C@@H]3[C@@H]2CC[C@]2(C)[C@@H](C(C)=NO)CC[C@@H]32)C1` [Comparator, 3β-ethynyl, 3α-hydroxy, 5α-pregnan-20-oxime], in assay [1] (1 μM steroid, α5β3γ2L), the “Mean % (SEM) Compound + GABA, change in chloride flow” value was “+210 (23) %”; the “Mean % (SEM) Compound + THDOC + GABA, change in chloride flow” value is on record as “+80 (8) %”; the “Mean % (SEM) Compound + THDOC, change in chloride flow” value is recorded as “+128 (22) %”; the “Mean % (SEM) Compound alone, change in chloride flow” value was “+50 (12) %”. Besides, in assay [1] (1 μM steroid, α5β3γ2L), the “mode of action, Compound + GABA” value is “agonist”; the “mode of action, Compound + THDOC” value was “agonist”; the “mode of action, Compound + THDOC + GABA” value is given as “agonist”; the “mode of action, Compound alone” value was “agonist”. Also, the “action on the GABA receptor subunit alpha 5” value in assay [1] was “agonist”.

In the case of `C#C[C@]1(O)CC[C@@]2(C)C(CCC3C2CC[C@@]2(C)C3CC[C@@H]2/C(C)=N/O)C1` (stereo partly drawn) [Compound, 3α-ethynyl, 3β-hydroxy, 5α-pregnan-20-oxime], in assay [1] (1 μM steroid, α5β3γ2L), the “Mean % (SEM) Compound + GABA, change in chloride flow” value is reported as −19 (2) %; the “Mean % (SEM) Compound + THDOC + GABA, change in chloride flow” value is −15 (3) %; the “Mean % (SEM) Compound + THDOC, change in chloride flow” value is listed as −30 (6) %; the “Mean % (SEM) Compound alone, change in chloride flow” value is listed as “no effect”. In addition, in assay [1] (1 μM steroid, α5β3γ2L), the “mode of action, Compound + GABA” value is listed as “antagonist”; the “mode of action, Compound + THDOC” value is recorded as “antagonist”; the “mode of action, Compound + THDOC + GABA” value is recorded as “antagonist”. Moreover, the “action on the GABA receptor subunit alpha 5” value in assay [1] is recorded as “antagonist”. In addition, the “direct activation of the GABAA receptor in absence of GABA” value in assay [2] (1 μM compound) was “did not activate”. Also, the “increase of GABA mediated current response” value in assay [2] (1 μM compound, α1β2γ2L) is “approximately 10%”. The “effect on GABA's opening of the α1β2γ2L GABAA receptor” value in assay [2] (compound + GABA) is recorded as “slight agonistic effect”. Moreover, the “effect of compound alone on chloride flux” value in assay [2] (compound alone) is “no enhancing or antagonizing effect”. In addition, the “Compound + GABA, current response” value in assay [2] (α1β2γ2L) was “+11 ± 4”. For the same molecule, the “antagonistic effect against the enhancing effect of THDOC” value in assay [2] (α1β2γ2L receptor) was “no antagonistic effect”. In addition, in assay [2] (α1β2γ2L, GAMS = THDOC), the “Compound + GAMS + GABA, current response” value is given as “No effect”. The “Compound alone, current response” value in assay [2] (α1β2γ2L, no GABA, no GAMS) is on record as “No effect”. Also, in assay [3] (0.1 μM compound), the “Relative effect Mean (%)” value is recorded as −3.0% and the “Relative effect Median” value is given as −1.6. Also, in assay [3] (200 nM THDOC, no GABA), the “effect on 200 nM THDOC evoked current (direct activation by GAMS)” value was “antagonizing effect”. In addition, in assay [3] (0.3 μM compound), the “Relative effect Mean (%)” value is −6.6% and the “Relative effect Median” value is −6.9. Moreover, in assay [3] (1 μM compound), the “Relative effect Mean (%)” value is given as −15.2% and the “Relative effect Median” value is recorded as −11.0. Moreover, in assay [3] (3 μM compound), the “Relative effect Mean (%)” value is listed as −20.7% and the “Relative effect Median” value is given as −23.6. The “effect on 200 nM GAMS (THDOC) and 0.3 μM GABA evoked currents” value in assay [3] (0.1-3 μM compound) is “clear concentration dependent antagonizing effect”. The “action on α5β3γ2L receptor subtype” value in assay [3] (all tested situations with GAMS and GABA) is recorded as “antagonist”. Further, in assay [3] (α5β3γ2), the “Compound + GABA, current response” value is listed as −18.8 ± 2.2. Also, in assay [3] (α5β3γ2, GAMS = THDOC), the “Compound + GAMS + GABA, current response” value is −15.2 ± 2.8. Moreover, the “Compound + GAMS, current response” value in assay [3] (α5β3γ2, GAMS = THDOC, no GABA) was −29.7 ± 6.5. The “Compound alone, current response” value in assay [3] (α5β3γ2, no GABA, no GAMS) was “No effect”.
